Data from ChEMBL document CHEMBL1201862, “PubChem BioAssay data set” (2004).
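96-well plates; 48 h exposure; 5 concentrations. Endpoints by linear interpolation between flanking doses. Not reached: highest tested concentration assigned. Here, GI50 denotes the concentration required for 50% inhibition of growth.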 Calls of active or inactive are those of the source. Rule as the data show it: active = GI50 up to about 1.1 µM and inactive = higher.

Legend:
Assay in all cases: inhibition of tumour cell growth, NCI panel, 48 h
[1] = test system: OVCAR-5
[2] = test system: RXF 393
[3] = test system: SF-539
[4] = test system: HCC 2998
[5] = test system: SK-MEL-5
[6] = test system: M19-MEL
[7] = test system: DMS-114
[8] = test system: RPMI-8226
[9] = test system: EKVX
[10] = test system: LOX IMVI
[11] = test system: NCI-H226
[12] = test system: OVCAR-4
[13] = test system: CCRF-CEM
[14] = test system: SNB-75
[15] = test system: UO-31
[16] = test system: HCT-116
[17] = test system: SNB-19
[18] = test system: U-251
[19] = test system: SR

Measured: GI50

CC(=O)Nc1ccccc1Sc1ccccc1
inactive: [1] > 100 µM | [2] 74.5 µM | [3] > 100 µM | [4] > 100 µM | [5] > 100 µM | [6] > 100 µM | [7] > 100 µM | [8] > 100 µM | [9] > 100 µM | [10] > 100 µM | [11] > 100 µM | [12] > 100 µM | [13] > 100 µM | [14] 39.3 µM | [15] 28.6 µM | [16] > 100 µM | [17] > 100 µM | [18] > 100 µM

CCc1cccc(C)c1NC(=O)C(=O)Cc1nc2ccccc2o1
inactive: [1] > 100 µM | [2] > 100 µM | [19] > 100 µM | [3] > 100 µM | [4] > 100 µM | [6] > 100 µM | [7] > 100 µM | [8] > 100 µM | [9] > 100 µM | [10] > 100 µM | [11] > 100 µM | [12] > 100 µM | [13] > 100 µM | [15] > 100 µM | [16] > 100 µM | [17] > 100 µM | [18] > 100 µM

OC12CCCCCC1(N1CCOCC1)c1ccccc12 (stereo not drawn)
inactive: [1] > 100 µM | [2] > 100 µM | [3] > 100 µM | [4] > 100 µM | [5] > 100 µM | [6] > 100 µM | [7] > 100 µM | [8] > 100 µM | [10] > 100 µM | [11] > 100 µM | [12] > 100 µM | [13] > 100 µM | [14] > 100 µM | [15] > 100 µM | [16] > 100 µM | [17] > 100 µM | [18] > 100 µM

C/C(CC(=O)Nc1cccc(Cl)c1C)=N\NC(=O)c1ccncc1
inactive: [1] > 100 µM | [2] 29.1 µM | [3] > 100 µM | [4] > 100 µM | [5] > 100 µM | [6] > 100 µM | [7] > 100 µM | [8] > 100 µM | [9] > 100 µM | [10] > 100 µM | [11] > 100 µM | [13] > 100 µM | [14] > 100 µM | [15] > 100 µM | [16] > 100 µM | [18] > 100 µM

OC1/C(=C/c2ccccc2)CNC/C1=C\c1ccccc1 (stereo not drawn)
inactive: [1] > 100 µM | [2] > 100 µM | [19] > 100 µM | [3] > 100 µM | [4] > 100 µM | [5] > 100 µM | [6] > 100 µM | [7] > 100 µM | [8] > 100 µM | [9] > 100 µM | [10] > 100 µM | [12] > 100 µM | [13] 40.8 µM | [14] 75.7 µM | [15] 87.5 µM | [16] > 100 µM | [17] > 100 µM | [18] > 100 µM

CSc1nc(-c2ccccc2)c2c(n1)-c1ccccc1CC2
inactive: [1] > 100 µM | [2] 34.4 µM | [19] > 100 µM | [5] > 100 µM | [6] > 100 µM | [7] > 100 µM | [8] > 100 µM | [9] > 100 µM | [10] > 100 µM | [11] > 100 µM | [12] > 100 µM | [13] > 100 µM | [14] > 100 µM | [15] > 100 µM | [16] > 100 µM | [17] > 100 µM | [18] > 100 µM

O=Cc1ccc2c(c1-c1c(C=O)ccc3c1OCO3)OCO2
inactive: [1] > 100 µM | [19] > 100 µM | [3] > 100 µM | [4] > 100 µM | [5] > 100 µM | [6] > 100 µM | [7] > 100 µM | [8] 96.6 µM | [9] > 100 µM | [11] > 100 µM | [12] > 100 µM | [13] 85.1 µM | [14] > 100 µM | [15] > 100 µM | [16] > 100 µM | [17] > 100 µM | [18] > 100 µM

COc1ccc2c(c1)CCc1c(-c3n[nH]c4c3CCc3cc(OC)ccc3-4)n[nH]c1-2
inactive: [1] > 100 µM | [19] 38.1 µM | [3] 24.1 µM | [4] > 100 µM | [5] 30.8 µM | [6] 33 µM | [7] 55.5 µM | [9] 31.3 µM | [10] 17.9 µM | [11] 28.8 µM | [13] 26.1 µM | [14] 23.3 µM | [15] 40.5 µM | [16] 34.1 µM | [17] 76.9 µM | [18] 49.1 µM

C#CCC(N)(CO)C(=O)O (stereo not drawn)
inactive: [1] > 100 µM | [19] > 100 µM | [3] > 100 µM | [4] > 100 µM | [5] > 100 µM | [6] > 100 µM | [7] > 100 µM | [8] > 100 µM | [9] > 100 µM | [10] > 100 µM | [11] > 100 µM | [12] > 100 µM | [13] > 10 µM | [14] 82.6 µM | [15] > 100 µM | [16] > 100 µM | [17] > 100 µM | [18] > 100 µM

COCC(OC)C(CC=C(C#N)C#N)OC (stereo not drawn)
inactive: [1] > 100 µM | [19] > 100 µM | [3] > 100 µM | [4] > 100 µM | [5] > 100 µM | [6] > 100 µM | [7] > 100 µM | [8] > 100 µM | [9] > 100 µM | [10] > 100 µM | [12] > 100 µM | [13] > 100 µM | [15] > 100 µM | [16] > 100 µM | [17] > 100 µM | [18] > 100 µM

Cn1c(=O)nc2n(-c3cccc(Br)c3)c3ccccc3nc-2c1=O
inactive: [1] 13.3 µM | [2] 11.5 µM | [3] 5.42 µM | [4] 2.59 µM | [5] 1.75 µM | [6] 1.43 µM | [7] 2.04 µM | [8] 4.57 µM | [9] 3.79 µM | [11] 8.38 µM | [12] 3.71 µM | [13] 5.82 µM | [14] 9.82 µM | [15] 12.9 µM | [16] 4.35 µM | [17] 1.38 µM | [18] 5.01 µM

CCN(CC)CCNc1ccc2nnn3c4ccc(OC)cc4c(=O)c1c23
inactive: [1] 11 µM | [19] 1.59 µM | [3] 3.04 µM | [5] 12.5 µM | [6] 13.5 µM | [7] 8.89 µM | [8] 2.82 µM | [10] 2.22 µM | [11] 6.3 µM | [12] 6.46 µM | [13] 3.52 µM | [14] 7.82 µM | [15] 10 µM | [16] 2.16 µM | [17] 11.4 µM | [18] 10.4 µM
